As a reminder, the inhibition is the percentage by which the read-out fell short of the control.

This is an account of results in US8173689B2 (Novartis AG, priority 2006, dated 2012).

Like-named read-outs stand apart in the source and are kept apart here.

The target in assay [1] is T1, cytoplasmic domain of the human CSF-1R (Homo sapiens, UniProt P07333).
T1 construct: Recombinant protein corresponding to the cytoplasmic domain of the human CSF-1R; purchased Invitrogen Corporation, Carlsbad, Calif; PV3249
T1 sequence (P07333 539-972 limits assumed): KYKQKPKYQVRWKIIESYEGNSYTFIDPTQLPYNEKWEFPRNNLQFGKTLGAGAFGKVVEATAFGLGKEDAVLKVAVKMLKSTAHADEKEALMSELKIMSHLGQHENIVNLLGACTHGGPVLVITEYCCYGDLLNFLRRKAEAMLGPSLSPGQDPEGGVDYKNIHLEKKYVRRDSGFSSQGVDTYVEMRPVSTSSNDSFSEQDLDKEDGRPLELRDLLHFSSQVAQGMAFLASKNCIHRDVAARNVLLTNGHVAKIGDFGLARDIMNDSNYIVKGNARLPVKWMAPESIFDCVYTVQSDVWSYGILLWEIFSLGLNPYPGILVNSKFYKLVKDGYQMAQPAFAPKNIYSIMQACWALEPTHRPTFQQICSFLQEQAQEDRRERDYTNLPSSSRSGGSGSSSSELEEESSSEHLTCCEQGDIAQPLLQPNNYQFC
Briefly: In vitro kinase assay for colony stimulating factor-1 receptor (AlphaScreen). The following applies: tested at about 1 μM, read-out: CSF-1R percent inhibition. In kind it is biochemical. Summed up: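 AlphaScreen read-out (PT66 anti-pTyr acceptor beads, streptavidin donor beads, overnight incubation) measured phosphorylated peptide product. The product was formed by the human CSF-1R cytoplasmic domain at 4 nM with 1 µM ATP in Mg2+/Mn2+ HEPES buffer, pH 7.5. Compound dilution series were 3-fold, starting at 25 µM.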
Background: Alpha assays give light when donor and acceptor beads are brought close together.

For the next assay, the target named is T2, kinase domain of PDGFRβ (Homo sapiens, UniProt P09619).
T2 construct: The kinase domain of PDGFRβ was assayed in 50 mM Hepes; purchased Invitrogen P3082
T2 sequence (P09619 600-962 limits assumed): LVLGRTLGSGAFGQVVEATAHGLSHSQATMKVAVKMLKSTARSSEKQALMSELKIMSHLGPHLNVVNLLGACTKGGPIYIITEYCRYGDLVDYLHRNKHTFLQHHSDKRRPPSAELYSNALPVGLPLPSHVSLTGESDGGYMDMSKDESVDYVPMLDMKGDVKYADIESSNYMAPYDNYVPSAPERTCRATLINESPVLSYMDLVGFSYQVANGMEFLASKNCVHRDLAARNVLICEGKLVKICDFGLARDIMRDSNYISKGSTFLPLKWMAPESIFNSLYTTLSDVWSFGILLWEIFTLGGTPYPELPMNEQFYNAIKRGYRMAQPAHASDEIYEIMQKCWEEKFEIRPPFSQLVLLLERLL
Put plainly: Inhibition of PDGFRb kinase signaling in an in vitro biochemical assay (alphascreen). The following applies: tested at about 1 μM, read-out: PDGFRβ percent inhibition.

A further assay concerns the target T3, kinase domain of cKIT (Homo sapiens, UniProt P10721).
T3 construct: The kinase domain of cKIT was assayed in 50 mM Hepes; purchased Upstate 14-559
Put plainly: Inhibition of cKIT kinase signaling in an in vitro biochemical assay (alphascreen). To be noted: tested at about 1 μM, read-out: cKit percent inhibition.

In assay [2] the test system is MNFS60 (murine AML cells). Briefly: Cell viability assay in MCSF dependent MNFS60 cells (Cell Titer Glo). To be noted: Mus musculus, tested at about 1 μM, read-out: M-NFS-60 CP percent inhibition. In kind it is cell-based. In short, it runs like this:
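MNFS60 cells grown with 10 ng/ml MCSF (final) were exposed for 72 hrs at 37° C., 5% CO2 to 3-fold serial compound dilutions. Viable cells were measured by Cell Titer Glo luminescence, in triplicate, and EC50s were derived by curve fitting.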
For orientation: ATP-based viability assays read luminescence as a measure of living cells.

Assay [3] addresses T4, full-length human CSF-1R receptor (Homo sapiens, UniProt P07333).
T4 construct: transfected with the full-length human CSF-1R receptor cloned in house; expressed in transfected cells; host or cells: HEK293H (Invitrogen Cat. #11631017)
Put plainly: In vitro inhibition of CSF-1R receptor tyrosine phosphorylation in transfected HEK293H cells stimulated with MCSF. Format: cell-based. To be noted: HEK293-H, tested at about 1 μM, read-out: pCSF1R percent inhibition. As to the method:
The lysate was then transferred to total CSF-1R antibody coated 96-well plates that had already been blocked with 3% Blocker A from Mesoscale discovery (MSD) for 2 hours and washed afterwards. Lysates were incubated overnight at 4° C. and the plates were then washed 4× with MSD Tris Wash Buffer. […] The plates were read on the Sector 6000 instrument (MSD). Raw data was imported in Abase and EC50s calculated with XL-fit data analysis software.

T4 sequence (P07333 20-972): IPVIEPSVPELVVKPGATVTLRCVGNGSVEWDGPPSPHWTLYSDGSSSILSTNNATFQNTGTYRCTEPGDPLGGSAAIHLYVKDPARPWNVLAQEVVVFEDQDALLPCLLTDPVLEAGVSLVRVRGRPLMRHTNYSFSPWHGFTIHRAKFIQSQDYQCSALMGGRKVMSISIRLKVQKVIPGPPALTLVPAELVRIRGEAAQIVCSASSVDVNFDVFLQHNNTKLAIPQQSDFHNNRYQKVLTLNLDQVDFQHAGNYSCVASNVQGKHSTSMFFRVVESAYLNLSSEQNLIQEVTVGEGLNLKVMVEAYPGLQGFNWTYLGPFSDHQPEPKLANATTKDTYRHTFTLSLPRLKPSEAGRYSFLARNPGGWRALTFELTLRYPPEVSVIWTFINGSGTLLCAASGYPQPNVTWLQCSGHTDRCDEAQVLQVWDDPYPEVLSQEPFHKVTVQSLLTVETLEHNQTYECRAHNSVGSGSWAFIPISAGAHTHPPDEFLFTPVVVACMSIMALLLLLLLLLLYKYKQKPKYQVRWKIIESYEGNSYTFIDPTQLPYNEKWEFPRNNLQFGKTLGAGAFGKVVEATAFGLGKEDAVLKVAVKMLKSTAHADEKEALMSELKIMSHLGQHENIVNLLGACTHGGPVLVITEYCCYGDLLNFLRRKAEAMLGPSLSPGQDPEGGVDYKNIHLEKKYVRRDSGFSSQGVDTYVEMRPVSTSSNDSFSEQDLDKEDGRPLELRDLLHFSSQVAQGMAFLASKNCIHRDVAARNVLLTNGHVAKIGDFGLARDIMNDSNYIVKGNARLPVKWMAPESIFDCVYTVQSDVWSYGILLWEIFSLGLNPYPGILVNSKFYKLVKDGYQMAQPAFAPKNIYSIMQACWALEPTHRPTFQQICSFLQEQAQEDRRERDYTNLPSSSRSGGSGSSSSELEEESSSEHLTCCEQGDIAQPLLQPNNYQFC
T3 sequence (P10721 589-937 limits assumed): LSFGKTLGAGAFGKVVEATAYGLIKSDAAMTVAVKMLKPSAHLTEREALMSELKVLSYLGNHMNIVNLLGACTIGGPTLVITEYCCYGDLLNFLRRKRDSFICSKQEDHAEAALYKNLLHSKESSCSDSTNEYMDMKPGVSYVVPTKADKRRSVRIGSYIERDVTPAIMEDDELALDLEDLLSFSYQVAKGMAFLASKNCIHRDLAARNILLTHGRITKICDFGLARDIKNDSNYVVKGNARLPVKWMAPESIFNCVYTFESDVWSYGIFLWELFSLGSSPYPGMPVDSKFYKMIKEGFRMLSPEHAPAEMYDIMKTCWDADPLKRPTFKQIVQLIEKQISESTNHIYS

`C[C@H](Nc1nc2ccc(Oc3ccnc(-c4nc5c([nH]4)CCCC5)c3)cc2s1)C1CCCCC1` [Example 271, (S)-N-(1-cyclohexylethyl)-6-(2-(4,5,6,7-tetrahydro-1H-benzo[d]imidazol-2-yl)pyridin-4-yloxy)benzo[d]thiazol-2-amine]: the inhibition at 1 µM in assay [1] (compounds of Table 3) is 98%; on kinase domain of PDGFRβ (compounds of Table 3) it was 24%; on kinase domain of cKIT (compounds of Table 3) it was 46%; in assay [2] (compounds of Table 3) it was 54%; in assay [3] (compounds of Table 3), 55%.

On to `CNC(=O)c1cc(Oc2ccc3nc(NC(CO)C4CCOCC4)sc3c2)ccn1` (centres unmarked) [Compound 95], for which the inhibition at 1 µM in assay [1] (compounds of Table 3) came to 100%; at kinase domain of PDGFRβ (compounds of Table 3), 2%; on kinase domain of cKIT (compounds of Table 3) it was 0%; in assay [2] (compounds of Table 3), 60%; in assay [3] (compounds of Table 3) it was 65%.

For the compound `CCCn1cc(-c2cc(Oc3ccc4nc(N[C@@H](C)C5CCCCC5)sc4c3)ccn2)cn1` [Example 273, (S)-N-(1-cyclohexylethyl)-6-(2-(1-propyl-1H-pyrazol-4-yl)pyridin-4-yloxy)benzo[d]thiazol-2-amine], the inhibition at 1 µM in assay [1] (compounds of Table 3) is 100%; at kinase domain of PDGFRβ (compounds of Table 3), 14%; on kinase domain of cKIT (compounds of Table 3), 41%; in assay [2] (compounds of Table 3) it was 95%; in assay [3] (compounds of Table 3), 88%.

Consider `CNC(=O)c1cc(Oc2ccc3nc(NCc4ccccc4-n4cccn4)sc3c2)ccn1` [Compound 143, 4-[2-(2-Pyrazol-1-yl-benzyl-amino)-benzothiazol-6-yloxy]-pyridine-2-carboxylic acid methylamide], for which the inhibition at 1 µM in assay [1] was determined as 99%; on kinase domain of PDGFRβ, 4%; at kinase domain of cKIT it was 33%; in assay [2] (MNFS60 cells) it was 97%; in assay [3] (HEK293H cells), 91%.

Turning to `CNC(=O)c1cc(Oc2ccc3nc(NCCc4ccccc4OC)sc3c2)ccn1` [Example 317, 4-(2-(2-methoxyphenylethylamino)benzo[d]thiazol-6-yloxy)-N-methylpicolinamide], the inhibition at 1 µM in assay [1] came out at 100%; at kinase domain of PDGFRβ, 12%; at kinase domain of cKIT it was 70%; in assay [2] (MCSF dependent MNFS60 cells), 50%; in assay [3] (HEK293H cells), 95%.

With `CNC(=O)c1cc(Oc2ccc3nc(N[C@@H](CO)C4CCCCC4)oc3c2)ccn1` [Compound 67, 4-[2-((R)-1-Cyclohexyl-2-hydroxy-ethylamino)-benzo-oxazol-6-yloxy]-pyridine-2-carboxylic acid methylamide], the inhibition at 1 µM worked out at 97% in assay [1]; 1% at kinase domain of PDGFRβ; 8% on kinase domain of cKIT; 10% in assay [2] (MNFS60 cells); 0% in assay [3] (HEK293H cells).

In the case of `CNC(=O)c1cc(Oc2ccc3nc(NCC4CCCCCC4)oc3c2)ccn1` [Compound 101, 4-[2-(Cycloheptylmethyl-amino)-benzooxazol-6-yloxy]-pyridine-2-carboxylic acid methylamide], the inhibition at 1 µM in assay [1] was found to be 99%; on kinase domain of PDGFRβ, 91%; at kinase domain of cKIT, 85%; in assay [2] (MNFS60 cells), 85%; in assay [3] (HEK293H cells) it was 91%.

For `CNC(=O)c1cc(Oc2ccc3nc(NCC4CCCCO4)sc3c2)ccn1` (centres unmarked) [Example 370, N-methyl-4-(2-((tetrahydro-2H-pyran-2-yl)methylamino)benzo[d]thiazol-6-yloxy)picolinamide], the inhibition at 1 µM is 100% in assay [1]; 34% at kinase domain of PDGFRβ; 64% at kinase domain of cKIT; 60% in assay [2] (MCSF dependent MNFS60 cells); 81% in assay [3] (HEK293H cells).

For the compound `COCCn1cc(-c2cc(Oc3ccc4nc(N[C@@H]5c6ccccc6C[C@@H]5O)sc4c3)ccn2)cn1` [Compound 58], the inhibition at 1 µM in assay [1] (compounds of Table 4) turned out to be 100%; at kinase domain of PDGFRβ (compounds of Table 4), 0%; at kinase domain of cKIT (compounds of Table 4), 11%; in assay [2] (compounds of Table 4), 100%; in assay [3] (compounds of Table 4), 95%.

For `O[C@@H]1CCCC[C@H]1Nc1nc2ccc(Oc3ccnc4cc(F)ccc34)cc2s1` [Example 229, (1R,2R)-2-(6-(7-fluoroquinolin-4-yloxy)benzo[d]thiazol-2-ylamino)cyclohexanol], the inhibition at 1 µM in assay [1] (compounds of Table 3) turned out to be 100%; at kinase domain of PDGFRβ (compounds of Table 3), 30%; at kinase domain of cKIT (compounds of Table 3), 21%; in assay [2] (compounds of Table 3) it was 80%; in assay [3] (compounds of Table 3), 92%.

In the case of `CNC(=O)c1cc(Oc2ccc3nc(NCc4ccccc4OC)sc3c2)ccn1` [Compound 132, 4-[2-(2-Methoxy-benzylamino)-benzothiazol-6-yloxy]-pyridine-2-carboxylic acid methylamide], the inhibition at 1 µM in assay [1] worked out at 99%; at kinase domain of PDGFRβ it was 58%; on kinase domain of cKIT it was 98%; in assay [2] (MNFS60 cells) it was 100%; in assay [3] (HEK293H cells), 98%.

`CNC(=O)c1cc(Oc2ccc3nc(N[C@@H]4CCCC[C@H]4O)sc3c2Br)ccn1` [Example 376, 4-(7-bromo-2-((1R,2R)-2-hydroxycyclohexylamino)benzo[d]thiazol-6-yloxy)-N-methylpicolinamide]: the inhibition at 1 µM in assay [1] worked out at 100%; at kinase domain of PDGFRβ, 28%; on kinase domain of cKIT it was 72%; in assay [2] (MCSF dependent MNFS60 cells), 87%; in assay [3] (HEK293H cells), 77%.

Take `CNC(=O)c1cc(Oc2ccc3nc(N[C@H](C)C4CCCCC4)oc3c2)ccn1` [Compound 54, 4-[2-((R)-1-Cyclohexyl-ethylamino)-benzooxazol-6-yloxy]-pyridine-2-carboxylic acid methylamide]: the inhibition at 1 µM in assay [1] stood at 100%; on kinase domain of PDGFRβ it was 7%; at kinase domain of cKIT, 17%; in assay [2] (MNFS60 cells) it was 64%; in assay [3] (HEK293H cells), 60%.

As to `C[C@H](Nc1nc2ccc(Oc3ccnc(-c4cnc5[nH]ccc5c4)c3)cc2s1)C1CCCCC1` [Example 278, (S)-6-(2-(1H-pyrrolo[2,3-b]pyridin-5-yl)pyridin-4-yloxy)-N-(1-cyclohexylethyl)benzo[d] thiazol-2-amine], the inhibition at 1 µM was found to be 100% in assay [1] (compounds of Table 3); 12% at kinase domain of PDGFRβ (compounds of Table 3); 38% on kinase domain of cKIT (compounds of Table 3); 82% in assay [2] (compounds of Table 3); 75% in assay [3] (compounds of Table 3).

As for `O[C@@H]1CCCC[C@H]1Nc1nc2ccc(Oc3ccnc(-c4cscn4)c3)cc2s1` [Compound 159], the inhibition at 1 µM turned out to be 100% in assay [1] (compounds of Table 3); 23% at kinase domain of PDGFRβ (compounds of Table 3); 29% on kinase domain of cKIT (compounds of Table 3); 98% in assay [2] (compounds of Table 3); 96% in assay [3] (compounds of Table 3).

In the case of `CNC(=O)c1cc(Oc2ccc3nc(NCC4CCCN(S(C)(=O)=O)C4)sc3c2)ccn1` (centres unmarked) [Example 308, N-methyl-4-(2-((1-(methylsulfonyl)piperidin-3-yl)methylamino)benzo[d]thiazol-6-yloxy)picolinamide], the inhibition at 1 µM in assay [1] was 100%; on kinase domain of PDGFRβ, 27%; on kinase domain of cKIT, 51%; in assay [2] (MCSF dependent MNFS60 cells) it was 54%; in assay [3] (HEK293H cells) it was 81%.
